# Values of other authors, collected in patent US10716831B2, “Methods for inhibiting infectious peritonitis” (priority 2014, dated 2020).
# B1: recombinant murine GM-CSF: recombinant murine GM-CSF used in rat and mouse peritonitis studies (protein, UniProt P01587 18-141, looked up)
# Granulocyte-macrophage …: APTRSPITVTRPWKHVEAIKEALNLLDDMPVTLNEEVEVVSNEFSFKKLTCVQTRLKIFEQGLRGNFTKLKGALNMTASYYQTYCPPTPETDCETQVTTYADFIDSLKTFLTDIPFECKKPGQK
# Key:
# Pseudomonas aeruginosa = conditions: controlled clinical trials, orally or intravenously administered, maximum
# [1] = tested on: polymorphonuclear leukocytes
# [2] = tested on: strains of organisms from the susceptible genera
# infectious peritonitis = conditions: combination with imipenem; Pachón-Ibáñez et al 2011
# [3] = tested on: Staphylococcus, Streptococcus, Neisseria, Escherichia, Proteus, Serratia, Salmonella, Shigella, Pseudomonas, Haemophilus and Vibrio; conditions: aerobic genera
# [4] = tested on: Klebsiella and Enterobacter spp.
# [5] = tested on: Peptostreptococcus (including Peptoniphilus, Finegoldia and Anaerococcus) and Fusobacterium; conditions: anaerobic genera
# [6] = tested on: bacteria of the B. fragilis group
# [7] = intraperitoneal compared with intravenous administration; Tobudic et al 2012
# [8] = tested on: resistant bacterial strains; conditions: controlled clinical trials, orally or intravenously administered; overall
# [9] = not given; remark: listed apart in the source
# [10] = in vivo
# monocytes = conditions: in vitro; Volk et al 1991
# [11] = tested on: cecal ligation and puncture; conditions: mice, subcutaneous injection; Gennari et al 1994
# bacterial peritonitis = conditions: mice, intraperitoneal for 5 days; Austin et al 1995
# [12] = tested on: non-traumatic generalized abdominal sepsis; conditions: subcutaneous, with systemic antibiotics; Orozco et al 2006
# [13] = third and last day of treatment
# peritoneal macrophages = conditions: intraperitoneal; Selgas et al 1996
# [14] = tested on: peritonitis induced by cecal ligation and puncture; conditions: rats, systemic; Toda et al 1994
# fecal peritonitis = conditions: mice, prophylactic administration; Barsig et al 1996
molecule,measurement,setting,value
"C[C@@H]1O[C@@H]1P(=O)(O)O [fosfomycin, [(2R,3S)-3-methyloxiran-2-yl]phosphonic acid]",appearance of resistant bacterial strains,Pseudomonas aeruginosa,15%
same,eosinophilia,Gobernado 2003,0.2%
same,transient rashes (allergy),Gobernado 2003,0.3 % of cases
same,transiently raised liver enzymes,Gobernado 2003,0.3 % of cases
same,toxicity to mammalian cells and organs,fosfomycin disodium at intravenous doses of up to 0.5 g/kg/day in human patients,remarkably non-toxic
same,concentration in polymorphonuclear leukocytes relative to extracellular fluid,[1],twice those of the extracellular fluid
same,tested strains showing synergistic effect,"[2]; early studies, various antibiotic combinations",70-100%
same,synergy rates,[2]; subsequent more extensive studies,36-74%
same,synergy and in-vivo efficacy with imipenem,infectious peritonitis,showed synergy and high in-vivo efficacy
same,antibacterial activity,[3],highly active
same,antibacterial activity,[4],active
same,antibacterial activity,[5],active
same,antibacterial activity,[6],not against
same,intraperitoneal levels,[7],superior intraperitoneal levels
same,appearance of resistant bacterial strains,[8],3.0%
C[C@@H]1O[C@@H]1P(=O)(O)O.NC(CO)(CO)CO [Fosfomycin trometamol],solubility in water,[9],highly soluble in water
same,pH of 5% solution,[9],3.5-5.5
same,local or oral tolerability,[10],well tolerated when given orally
C[C@@H]1O[C@@H]1P(=O)(O)O [Fosfomycin disodium],solubility in water,[9],highly soluble in water
same,pH of 5% solution,[9],9.0-10.5
same,local or oral tolerability,[10],locally irritant if un-neutralized
GM-CSF: cytokine of the colony-stimulating factor family; mature human protein SEQ ID NO: 2,loss of HLA-DR antigen expression to <20%,monocytes,reversed
same,mortality,[11],significantly reduced
same,survival,bacterial peritonitis,improved survival
same,rate of infectious complications and length of hospitalization,[12],reduced
same,minor flu-like symptoms,[13],2 of 8
same,peritoneal macrophage numbers,peritoneal macrophages,large increase
same,peritoneal transport of water or solutes,peritoneal macrophages,did not affect
B1,survival rate,[14],did not improve
same,leukocyte numbers and protection,fecal peritonitis,neither augmented leukocyte numbers nor protected mice
